Test [1] relates to human monocytic cell line U937. Put plainly: Human U937 cellular necroptosis assay (TNFalpha + z-VAD-FMK, Cell Titer-Glo viability). It is filed as cell-based. The following applies: Homo sapiens, U-937, 22 h, U937 cells, 25 ng/mL human TNFalpha + 25 μM z-VAD-FMK, read-out: hU937 Avg IC50. The procedure, abridged: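 Cells resuspended in phenol red-free RPMI with 10% FBS, stimulated with 25 ng/mL human TNFalpha plus 25 μM z-VAD-FMK, then given serially diluted compound for 22 h at 37° C, 5% CO2. Viability by Cell Titer-Glo 2.0 luminescence; IC50 from four-parameter logistic fit, averaged across runs.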
On the technique in general: In ATP-based viability assays light output follows the ATP content of the culture.

The target of a further test is RIPK1 (Homo sapiens (Human), UniProt Q13546). Description: ADP-Glo kinase assay (RIPK1 activity, conversion of ATP to ADP). It is filed as biochemical. The following applies: for IC50: 5 nM RIPK1, 50 μM ATP, 6 h reaction, read-out: RIPK1 Enzyme Avg IC50. The procedure, abridged: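 ADP-Glo luminescence of ATP-to-ADP conversion by 5 nM RIPK1 with 50 μM ATP (final), 6 h reaction after 10 min compound preincubation at rt. Buffer was 50 mM HEPES pH 7.5, 30 mM MgCl2, 0.05% BSA, 0.02% CHAPS. IC50 from four-parameter logistic fit.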
Sequence of RIPK1 (Q13546 1-327): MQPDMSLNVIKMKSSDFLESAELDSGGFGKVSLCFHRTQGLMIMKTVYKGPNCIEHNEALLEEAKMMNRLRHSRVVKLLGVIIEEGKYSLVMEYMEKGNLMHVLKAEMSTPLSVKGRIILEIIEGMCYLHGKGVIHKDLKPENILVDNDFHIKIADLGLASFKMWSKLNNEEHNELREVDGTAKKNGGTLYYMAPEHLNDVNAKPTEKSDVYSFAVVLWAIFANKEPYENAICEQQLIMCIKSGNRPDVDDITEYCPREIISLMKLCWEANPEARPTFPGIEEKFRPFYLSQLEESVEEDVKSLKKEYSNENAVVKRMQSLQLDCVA
A general note: In ADP-Glo the light output rises with the ADP produced.

In the case of `Cc1ccc2c(cnn2CC23CC(C(=O)N4N=CCC4c4cncc(F)c4)(C2)C3)n1` (centres unmarked) [Example 132, (5-(5-fluoropyridin-3-yl)-4,5-dihydro-1H-pyrazol-1-yl)(3-((5-methyl-1H-pyrazolo[4,3-b]pyridin-1-yl)methyl)-bicyclo[1.1.1]pentan-1-yl)methanone], the IC50 (commonly the concentration that gives 50% inhibition) is 0.826 µM in test [1] and 0.139 µM on RIPK1.

For the molecule `O=C(N1N=CCC1c1cc(F)cc(F)c1)C12CC(COc3ccc(Br)cc3F)(C1)C2` (centres unmarked) [Example 331, (3-((4-bromo-2-fluoro-phenoxy)methyl)bicyclo-[1.1.1]pentan-1-yl)(5-(3,5-difluorophenyl)-4,5-dihydro-1H-pyrazol-1-yl)methanone], the half-maximal inhibitory concentration (IC50) in test [1] was determined as 0.028 µM; on RIPK1, 0.013 µM.

For the molecule `O=C(N1N=CCC1c1cc(F)cc(F)c1)C12CC(C(F)c3cccc(Cl)c3)(C1)C2` (centres unmarked) [Example 42, (3-((3-chlorophenyl)fluoromethyl)bicyclo[1.1.1]pentan-1-yl)(5-(3,5-difluorophenyl)-4,5-dihydro-1H-pyrazol-1-yl)methanone], the half-maximal inhibitory concentration (IC50) is 0.051 µM in test [1] and 0.031 µM at RIPK1.

As for `N#Cc1cnc(OCC23CC(C(=O)N4N=CCC4c4cc(F)cc(F)c4)(C2)C3)cn1` (centres unmarked) [Example 199, 5-((3-(5-(3,5-difluorophenyl)-4,5-dihydro-1H-pyrazole-1-carbonyl)bicyclo[1.1.1]pentan-1-yl)methoxy)pyrazine-2-carbonitrile], the concentration for half-maximal inhibition (IC50) in test [1] stood at 0.0093 µM; on RIPK1, 0.0083 µM.

`O=C(N1N=CCC1c1cc(F)cc(F)c1)C12CC(Cn3cc4ccc(F)cc4n3)(C1)C2` (centres unmarked) [Example 62, (5-(3,5-difluorophenyl)-4,5-dihydro-1H-pyrazol-1-yl)(3-((6-fluoro-2H-indazol-2-yl)methyl)bicyclo[1.1.1]-pentan-1-yl)methanone]: the results for the 50% inhibitory concentration (IC50) (in test [1]; on RIPK1) were 0.133 µM and 0.046 µM, respectively.

On to `COc1ccn(CC23CC(C(=O)N4N=CCC4c4cc(F)cc(F)c4)(C2)C3)n1` (centres unmarked) [Example 164, (5-(3,5-difluorophenyl)-4,5-dihydro-1H-pyrazol-1-yl)(3-((3-methoxy-1H-pyrazol-1-yl)methyl)bicyclo[1.1.1]-pentan-1-yl)methanone], for which the IC50 in test [1] was 0.214 µM; on RIPK1, 0.057 µM.

For `O=C(N1CC(F)CC1c1cccc(F)c1)C12CC(Cn3cc4cc(F)ccc4n3)(C1)C2` (centres unmarked) [Example 106, (4-fluoro-2-(3-fluorophenyl)-pyrrolidin-1-yl)(3-((5-fluoro-2H-indazol-2-yl)methyl)-bicyclo[1.1.1]pentan-1-yl)methanone], the 50% inhibitory concentration (IC50) was found to be 1.47 µM in test [1] and 0.371 µM at RIPK1.

For `O=C(N1N=CCC1c1cc(F)cc(F)c1)C12CC(Cn3ncc4ccc(F)cc43)(C1)C2` (centres unmarked) [Example 70, (5-(3,5-difluorophenyl)-4,5-dihydro-1H-pyrazol-1-yl)(3-((6-fluoro-1H-indazol-1-yl)-methyl)bicyclo[1.1.1]pentan-1-yl)methanone], the values for the IC50 (in test [1]; at RIPK1) were 0.026 µM and 0.034 µM, respectively.

With `N#Cc1cn(CC23CC(C(=O)N4N=CCC4c4cc(F)cc(F)c4)(C2)C3)cn1` (centres unmarked) [Example 124, 1-((3-(5-(3,5-difluorophenyl)-4,5-dihydro-1H-pyrazole-1-carbonyl)bicyclo[1.1.1]-pentan-1-yl)methyl)-1H-imidazole-4-carbonitrile], the values for the 50% inhibitory concentration (IC50) (in test [1]; on RIPK1) were 0.751 µM and 0.156 µM, respectively.

In the case of `Cc1cc(F)c([C@@H]2CC=NN2C(=O)C23CC(COc4cnc(C#N)cn4)(C2)C3)cc1F` [Example 197, (S)-5-((3-(5-(2,5-difluoro-4-methylphenyl)-4,5-dihydro-1H-pyrazole-1-carbonyl)bicyclo[1.1.1]pentan-1-yl)methoxy)pyrazine-2-carbonitrile], in test [1], the IC50 worked out at 0.00077 µM. Moreover, the “observed potency relative to the other enantiomer” value at RIPK1 (enantiomers separated by SFC, assay not named) is “more potent isomer”.

Source of the values: patent publication US20250214942A1, “INHIBITORS OF RECEPTOR INTERACTING PROTEIN KINASE I FOR THE TREATMENT OF DISEASE” (Board of Regents, The University of Texas System, priority 2019, published 2025).
